Data set [1] addresses T1, Indoleamine 2,3-dioxygenase 1 (Homo sapiens, UniProt P14902). The data set is described as follows: Binding affinity to human HuH7 cell derived IDO1 expressed in Escherichia coli BL21 codon plus up to 10 uM by surface plasmon resonance analysis. For orientation: In SPR one partner is held on a chip, and binding of the other changes the refractive index at the surface.
Target sequence in this assay (P14902 whole entry, looked up): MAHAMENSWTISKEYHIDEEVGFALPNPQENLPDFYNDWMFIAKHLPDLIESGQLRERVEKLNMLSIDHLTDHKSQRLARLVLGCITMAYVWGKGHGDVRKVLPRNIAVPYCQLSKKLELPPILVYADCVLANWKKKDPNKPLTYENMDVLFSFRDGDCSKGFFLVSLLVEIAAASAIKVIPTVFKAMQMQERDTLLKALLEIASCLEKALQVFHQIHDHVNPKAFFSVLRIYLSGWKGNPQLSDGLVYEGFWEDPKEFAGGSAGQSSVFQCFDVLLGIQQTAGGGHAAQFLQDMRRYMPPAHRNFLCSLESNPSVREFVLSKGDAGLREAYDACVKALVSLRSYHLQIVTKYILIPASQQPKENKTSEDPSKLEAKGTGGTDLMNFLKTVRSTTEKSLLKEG
Data set [2] concerns the target T1, Indoleamine 2,3-dioxygenase 1. Briefly: Inhibition of human HuH7 cell derived IDO1 expressed in Escherichia coli BL21 codon plus using L-tryptophan as substrate measured after 1 hr by fluorescence assay.
Target sequence in this assay (P14902 whole entry): as the sequence (P14902 whole entry, looked up) above
Data set [3] in a line: Cytotoxicity against human HuH7 cells assessed as survival rate at 10 uM after 24 hrs by MTT assay relative to control. In kind it is cell-based, Huh-7. The note with it: read-out: Survival. (Tetrazolium dyes change colour on reduction, which living cells bring about.)
Data set [4] has as its target T1, Indoleamine 2,3-dioxygenase 1. Briefly: Inhibition of IDO1 in IFNgamma-stimulated human HuH7 cells at 10 uM using L-tryptophan as substrate measured after 24 hrs relative to control.
Target sequence in this assay (P14902 whole entry, looked up): as above
Data set [5] shares this target. The data set is described as follows: Inhibition of IDO1 in IFNgamma-stimulated human HuH7 cells at 1 uM using L-tryptophan as substrate measured after 24 hrs relative to control.
Target sequence in this assay (P14902 whole entry, looked up): as above
Data set [6] in a line: Cytotoxicity against human HuH7 cells assessed as survival rate at 1 uM after 24 hrs by MTT assay relative to control. The data set is classed as cell-based, Huh-7. The note with it: read-out: Survival.

Activity calls are given as the source filed them. No cut-off for these calls is given here.

The results in this text go back to ChEMBL document CHEMBL4257491, “Discovery of indoleamine 2,3-dioxygenase inhibitors using machine learning based virtual screening” (Medchemcomm, 2018).

As for `Cc1c(-c2c(C)c(O)c3ccccc3c2O)oc2c1C(=O)C(=O)c1c-2ccc2c1CCCC2(C)C`, the outcome in data set [1] was Active. For the same compound, in data set [2], the IC50 came out at 4.1 µM. The viability at 24 h, 10 µM in data set [3] worked out at 97.1%. In data set [4], this compound had an inhibition of 21%.

`Cc1cccc2c3c(ccc12)C1=C(C(=O)C3=O)C(C)CO1` (configuration not stated) gave an inhibition in data set [5] of 54.3%. The outcome in data set [1] was Active. For the same compound, the IC50 in data set [2] was 1.3 µM. Further, the viability at 24 h, 1 µM in data set [6] came to 94.7%.

As to `Cc1coc2c1C(=O)C(=O)c1c-2ccc2c1C=CCC2(C)C`, in data set [5], the inhibition is 66.7%. Moreover, the result in data set [1] was Active. Also, the IC50 in data set [2] amounted to 4.68 µM. Also, the viability at 24 h, 1 µM in data set [6] was found to be 93%.

Usually IC50 stands for the concentration that inhibits the measured activity by half. By inhibition is commonly meant the relative decrease from the control value, in per cent. Read a high inhibition as a response far below the control.
